Test results: patent EP0291321A2, “Element and method for determination of creatinine or creatine” (EASTMAN KODAK COMPANY (a New Jersey corporation), priority 1987, dated 1988)

Molecular target: T1, sarcosine oxidase (Bacillus sp., UniProt P40859)
T1 sequence (P40859 1-390): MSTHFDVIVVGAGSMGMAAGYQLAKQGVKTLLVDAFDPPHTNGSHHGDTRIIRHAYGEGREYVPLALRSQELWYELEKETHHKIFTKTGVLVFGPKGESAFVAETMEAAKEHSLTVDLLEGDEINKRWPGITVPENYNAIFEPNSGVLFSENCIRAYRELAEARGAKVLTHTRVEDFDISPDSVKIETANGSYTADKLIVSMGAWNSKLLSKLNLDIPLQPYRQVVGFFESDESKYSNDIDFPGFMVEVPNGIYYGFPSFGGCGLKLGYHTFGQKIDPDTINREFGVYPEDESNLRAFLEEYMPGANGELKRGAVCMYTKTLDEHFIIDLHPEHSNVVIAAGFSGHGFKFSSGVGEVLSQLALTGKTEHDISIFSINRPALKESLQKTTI
Assay: sarcosine oxidase activity on substrate at various pH (rate of change in absorbance per minute)
Format: biochemical
Settings: for Ratio (B/A): rate with N-ethyl glycine divided by rate with sarcosine
Description: Separate assays at various pH were conducted to determine the rate of change in absorbance per minute (ΔA/min) for sarcosine oxidase activity on its substrate sarcosine, and on N-ethyl glycine. The assay is based on the following reactions. [drawing 1]

Row | rate of change in absorbance per minute (ΔA/min) for sarcosine oxidase activity (pH 6.5) | Ratio (B/A) (pH 6.5) | rate of change in absorbance per minute (ΔA/min) for sarcosine oxidase activity (pH 7.0) | Ratio (B/A) (pH 7.0) | rate of change in absorbance per minute (ΔA/min) for sarcosine oxidase activity (pH 7.5) | Ratio (B/A) (pH 7.5) | Compound
1 | 0.017 ΔA/min | 0.011 | 0.053 ΔA/min | 0.024 | 0.134 ΔA/min | 0.048 | CCNCC(=O)O [N-Ethyl Glycine, N-ethyl glycine]
2 | 1.56 ΔA/min |  | 2.20 ΔA/min |  | 2.76 ΔA/min |  | CNCC(=O)O [Sarcosine, sarcosine]
